As a reminder, the melting point is the temperature, or range, at which the solid turns liquid. Molecule `Cn1c(C(F)(F)F)cc2ccccc21` displayed a melting point of 28 to 32 °C.

In turn, `COC(=O)c1cc2c3cc(OC)ccc3n(C)c2s1` returned a melting point of 124 to 125 °C.

As for `Cc1ccc(Cn2nc(CNC(=O)NC(C)(C)C)cc2-c2ccc(Cl)c(Cl)c2)cc1Cl`, the melting point was 181 °C.

Regarding `O=C1NC(=O)C2(C=Cc3cscc32)N1` (stereo not given), the melting point was in the range of 241 to 243 °C.

For `O=c1[nH]c(SCCCN2CCN(c3ccccn3)CC2)nc2sc3c(c12)CCCC3`, the melting point fell in the range of 190 to 192 °C.

Take `CC(C)(C)NC(=O)[C@@H]1CN(C(=O)OC(C)(C)C)CCN1C(=O)OCc1ccccc1`: the melting point lay in the range of 134 to 135 °C.

The molecule `Fc1ccc(F)c(CN2CCNc3ncc(I)cc32)c1` registered a melting point of 175 °C.

Take `COc1ccccc1N1CCN(CCN(CCCN2CC=C(c3c[nH]c4cc(F)ccc34)CC2)C(C)=O)CC1`: the melting point lay in the range of 75 to 77 °C.

For `COC(=O)C(CC(=O)O)Cc1ccc(OC)c(OC)c1` (stereo not given), the melting point lay in the range of 104 to 107 °C.

Take `COc1ccc(C2(C)C(=O)Nc3cc(Cl)cc(Cl)c3C2=O)cc1[N+](=O)[O-]` (stereo not given): the melting point was in the range of 255 to 256 °C.

`Cc1nc2cccc3n(CCC4CCN(S(=O)(=O)C(F)(F)F)CC4)c(=O)c1n23`: the melting point lay in the range of 169 to 170 °C.

`Cc1cc(C)c(O)c(CC(C)(C)CO)c1` returned a melting point of 117 °C.

Turning to `COC(=O)NCCC1CN=C(c2cc3cccc(N(C)S(=O)(=O)c4cccs4)c3[nH]2)S1` (stereo not given), the melting point was 201 to 203 °C.

`CCCCOc1ccc(OCC2(O)CN3CCC2CC3)cc1` (stereo not given) showed a melting point of 110 to 112 °C.

In turn, `N#CNC(=N)NC1CC1` displayed a melting point of 106 °C.

For the molecule `Oc1nc(Cl)nc(NN=Cc2cc(C(F)(F)F)cc(C(F)(F)F)c2)n1`, the melting point was determined as 258 °C.

For `Cc1onc(-c2ccccc2)c1-c1[nH]c2ccccc2c1CCC(=O)N(C)C`, the melting point was 174 to 177 °C.

For `N#Cc1ccc(CN(c2ccc(O)cc2)n2ccnc2)cc1`, the melting point is 150 °C.

On to `O=Cc1ccc2c(c1)COC2=O`, for which the melting point stood at 160 °C.

`CC(C)(C)OC(=O)c1ccc(OCCNC(=O)C2Cc3ccccc3N2S(=O)(=O)c2ccc(-c3ccc(F)cc3F)cc2)cc1` (stereo not given) had a melting point of 80 °C.

The molecule `CSc1cc(C)nc(SC)c1NC(=O)CCCSc1nc2ccccc2s1` gave a melting point of 131 to 133 °C.

In the case of `COc1cc(C)nc(NC(=O)NS(=O)(=O)c2ccsc2C2=CCCCC2)n1`, the melting point is 190 to 192 °C.

Molecule `CCCCCCCCCCOc1cc2oc3c(C(=O)O)cccc3c(=O)c2cc1CCC(=O)O` showed a melting point of 180 to 182 °C.

For `CNC(=O)N(O)C(C)C#Cc1ccccc1` (stereo not given), the melting point lay within 136 to 137 °C.

On to `CCCc1ccc(CCCOc2c(C)cc(-c3nnn(C)n3)cc2C)o1`, for which the melting point fell in the range of 38 to 39 °C.

`CCC1(CO)CCCN2CCc3c([nH]c4ccccc34)C21` (stereo not given) showed a melting point of 230 to 233 °C.

In turn, `C=C(C)C(=O)OCCc1ccc(-c2ccc(OC(=O)C(=C)C)cc2)cc1` gave a melting point of 108 °C.

The molecule `C=CC(=O)N1CC(O)CC1C(=O)OC` (stereo not given) had a melting point of 77 to 78 °C.

Turning to `O=C(Nc1cccc2c1C(=O)N(CCN1CCN(c3ccncc3)CC1)C2=O)c1ccc(Cl)s1`, the melting point amounted to 168 °C.

The molecule `C=CCNc1nnc(-c2ccc(F)c(F)c2Nc2ccc(I)cc2F)o1` showed a melting point of 175 to 178 °C.

In turn, `CCc1c(-c2ccc(O)cc2)c2cc(COCCCN(C)C)c3cccc1n32` came in with a melting point of 146 to 147 °C.

Regarding `NNC(=O)c1ccccc1Nc1cccc(C(F)(F)F)c1`, the melting point fell in the range of 134 to 135 °C.

In turn, `NC(=O)c1cc2ccccc2cc1O` gave a melting point of 216 to 217 °C.

In turn, `CCCNc1nc(C)nc2c1nnn2-c1ccc(C(C)C)cc1Br` returned a melting point of 156 to 157 °C.

The molecule `CC1(C)C2CC[C@]1(C)C(=O)C(C(=O)Nc1cccc([N+](=O)[O-])c1)C2=O` (stereo not given in full) registered a melting point of 100 to 102 °C.

For the molecule `COC(=O)c1ccc([N+](=O)[O-])c(OCC(N)=O)c1`, the melting point was 138 to 139 °C.

With `COC1CN(c2ccc(N3C[C@H](CNC(C)=O)OC3=O)cc2F)C1`, the melting point fell in the range of 160 to 162 °C.

Molecule `COc1cc(CC(=O)c2c(O)c3cccnc3n(-c3ccccc3)c2=O)cc(OC)c1` displayed a melting point of 170 to 171 °C.

In the case of `Cc1cc(-c2ccc(C#N)cc2)c(C)n1Cc1cnc(Cl)c(COC(=O)CCC(=O)O)c1`, the melting point is 201 to 204 °C.

Regarding `O=C(O)[C@@H]1CCCN1S(=O)(=O)c1cc(Cl)cc(Cl)c1O`, the melting point was 107 °C.

For `CC(=O)c1csc(-c2nc3n(c2-c2ccncc2)CCC3)c1`, the melting point was in the range of 152 to 154 °C.

`CC(C(=O)O)c1cccc(C(=O)c2cc3sccc3s2)c1` (stereo not given): the melting point amounted to 133 °C.

For the molecule `Cc1ccc(S(=O)(=O)NC(=S)Nc2cnccc2N)cc1`, the melting point lay in the range of 185 to 187 °C.

As for `O=C(CCCCCl)Nc1nc2ccccc2[nH]1`, the melting point lay in the range of 161 to 163 °C.

As for `NCC1(Cc2noc(=O)[nH]2)CCCCC1`, the melting point lay within 109 to 111 °C.

Regarding `Cc1ccc(C(=O)CNC(=O)c2ccc(C(F)(F)F)cc2)s1`, the melting point lay within 182 to 183 °C.

As to `CC1COc2c(F)c(F)cc(C(=O)O)c2N1` (stereo not given), the melting point fell in the range of 200 to 202 °C.

`OCCCc1cn(C(c2ccccc2)(c2ccccc2)c2ccccc2)cn1` gave a melting point of 130 °C.

With `O=C(c1cncc(Br)c1)N1CCC(=C2c3ccc(Cl)cc3CCc3cccnc32)CC1`, the melting point is 87.5 to 96.4 °C.

In turn, `CCOC(CNC1=Nc2sc(CC)cc2C(c2ccccc2Cl)=NC1)OCC` registered a melting point of 124 to 127 °C.

As for `CC(=O)Nc1ccc2c3c(cccc13)S(=O)(=O)N2CCCCl`, the melting point worked out at 205 °C.

`CC(=O)N1CCN(c2c(N[C@@H](Cc3ccccc3)C(=O)O)c(=O)c2=O)CC1` registered a melting point of 155 to 158 °C.

For `Nc1cc(Cl)c(F)cc1-c1cccc(Cl)c1`, the melting point is 58 °C.

In turn, `N#CNc1cc(Cl)ccc1N1CCOCC1` yielded a melting point of 305 to 308 °C.

For `COc1cc(OC)cc(Oc2nc(N)n3nc(-c4ccco4)nc3n2)c1`, the melting point was in the range of 248 to 250 °C.

With `O=C1c2c(Cl)cccc2-n2cnc(-c3cnco3)c2[C@@H]2CCCN12`, the melting point fell in the range of 201 to 202 °C.

For `CN1CCCC(c2cccc3ccc(N)cc23)C1` (stereo not given), the melting point was in the range of 117 to 120 °C.

Molecule `O=C(O)C(O)CSc1ccc(-c2ccccc2)cc1` (stereo not given) displayed a melting point of 176 °C.

`CCOC(=O)CC(NCc1ccccc1)=C(C(C)=O)C(=O)OCC`: the melting point fell in the range of 87 to 88 °C.

`O=c1c(CCCCc2cccnc2)cc2cccnc2n1-c1cccc([N+](=O)[O-])c1` registered a melting point of 184 to 185 °C.

The molecule `CCN(CC)CC1CCN(c2c(F)cc3c(=O)c(C(=O)O)cn(CC)c3c2F)C1` (stereo not given) returned a melting point of 210 to 211 °C.

Turning to `CCCCOc1ccc(S(=O)(=O)C2(C(=O)O)CCN(CC)CC2)cc1`, the melting point turned out to be 162 °C.

Consider `CCCCOc1ccccc1-c1ncc(-c2nnn[nH]2)c(=O)[nH]1`, for which the melting point lay within 244 to 247 °C.

Molecule `COc1ccc(-c2ccc(-c3ccc(OC)cc3)c(-c3ccc(OCc4ccccc4)cc3)n2)cc1` came in with a melting point of 99 to 102 °C.

As to `Cc1nc(-c2ccccc2)c(C)c(=O)o1`, the melting point was 68 °C.

Molecule `CCc1n[nH]c2cc(-c3nn(C(C)c4oc5ccccc5c(=O)c4-c4cccc(F)c4)c4ncnc(N)c34)ccc12` (stereo not given) yielded a melting point of 270 to 273 °C.

The molecule `CCN1CCN(C(C(=O)N(C)CCO)c2ccc(Nc3nc(-c4cccc(NC(=O)c5cc6c(s5)CCCCC6)c4C)cn(C)c3=O)cc2)CC1` (stereo not given) showed a melting point of 163 to 165 °C.

On to `CC(=O)c1ccc(Nc2cccc(Br)c2)c([N+](=O)[O-])c1`, for which the melting point lay within 142 to 144 °C.

Turning to `CC(=O)Nc1ccc2oc(-c3ccc(OCc4ccccc4)c(OCc4ccccc4)c3)c(O)c(=O)c2c1`, the melting point was in the range of 229 to 230 °C.

Molecule `O=C(O)c1cc(-n2c(-c3ccccc3)cc3c4ccccc4ccc32)ccc1O` showed a melting point of 242 °C.

Regarding `O=[N+]([O-])c1ccc(Oc2ccc(C(F)(F)F)cc2Cl)nc1O`, the melting point lay within 87 to 93 °C.

For `CS(=O)(=O)c1ccc(-c2ccc(I)n2-c2ccc(F)cc2)cc1`, the melting point is 174 to 176 °C.

Regarding `FC(F)(F)c1cc(Cl)c(-c2nc(Br)c[nH]2)c(Cl)c1`, the melting point fell in the range of 224 to 225 °C.

The molecule `C=C(C)C(=O)Oc1cccc(O)c1O` showed a melting point of 100 to 102 °C.

Consider `C1=C(c2cccc3[nH]ccc23)CN(CCc2ccccc2)CC1`, for which the melting point was 205 °C.

`O=C(NC(=O)c1ccccc1Cl)Nc1ccc(Cl)c(C(F)(F)F)c1` showed a melting point of 164 °C.

`O=C(CCCC(Cl)c1ccc(Cl)cc1)Nc1ccccc1` (stereo not given) yielded a melting point of 99 to 102 °C.

The molecule `COC(=O)c1cc(C(C)OC)c(C(F)(F)F)cc1N` (stereo not given) gave a melting point of 112 to 114 °C.

`CC(C)c1ccc(C(=O)NC(C)c2ccc(Br)s2)cc1` (stereo not given) displayed a melting point of 108 °C.

`CCc1nc2c(N)nc3cc(CCNS(C)(=O)=O)ccc3c2n1CC(C)(C)O` came in with a melting point of 149 to 152 °C.

On to `COC(=O)[C@@H](C)Oc1ccc(Oc2cnc3ccc(Cl)cc3n2)cc1`, for which the melting point was found to be 80 °C.

`CC(=O)Nc1nc(CCc2ccc(N)cc2)c(C(=O)NCc2ccccc2)s1` came in with a melting point of 200 to 201 °C.

`O=C(CN1C(=O)c2ccccc2C1=O)c1ncc(C(F)(F)F)cc1Cl`: the melting point came to 162 °C.

Molecule `CC(C)(C)Oc1ccc(C(=O)N[C@H]2CC[C@H](CCN3CCN(c4nccc5c4OCC5)CC3)CC2)cc1` returned a melting point of 168 °C.

In the case of `O=c1[nH]c2cc(Br)cc(Br)c2c(=O)n1Cc1ccccc1`, the melting point is greater than 280 °C.

In the case of `Cc1cc(O)ccc1-c1ccc(C=O)c(Cl)c1`, the melting point was in the range of 125 to 127 °C.

For the molecule `O=C1N(c2c(Cl)cccc2Cl)Cc2cnc(Nc3ccccc3)nc2N1c1cccc(CCO)c1`, the melting point is greater than 250 °C.

Regarding `Cc1nc(NC(=O)c2cnn3c(C(F)(F)F)cc(-c4ccc(C(F)(F)F)cc4)nc23)sc1S(=O)(=O)N(C)CCO`, the melting point came to 266 °C.

In turn, `CC(CCOS(C)(=O)=S)(C(=O)O)C(=O)O` (stereo not given) returned a melting point of 109 to 111 °C.

`CCN(CC)c1nc(C)nc2nc(-c3ccncc3)[nH]c12` came in with a melting point of 228 to 230 °C.

These data come from a melting point compilation (Tetko et al.; mined from patent text by program, amines drawn as free bases though some values may be those of a salt).
